Data as given in US8519136B2, “Aminopyridine derivatives having aurora a selective inhibitory action” (MSD K.K., priority 2008, dated 2013).
Where a name gives a salt, the structure may show the parent alone.

The compounds below were run against T1, GST-tagged human Aurora B(AurB)/His-tagged human INCENP complex proteins (Homo sapiens, UniProt Q96GD4) (assay: Aurora B inhibitory activity (Method A, IMAP kit)). Conditions: 40 μM ATP, 25° C., 45 minutes.
T1 construct: GST; purchased Carna Biosciences, Inc
Type: biochemical
Experimental: An assay development kit for IMAP (registered trademark) (Aurora B), purchased from Carna Biosciences, Inc., was used for phosphorylation reaction, and the phosphorylation of a substrate was detected using the IMAP technology. The assay development kit used is comprised of an assay buffer, GST-tagged human Aurora B(AurB)/His-tagged human INCENP complex proteins (amino acid sequence: 803-916, AAU04398.1), and an ATP/substrate solution. Using the same, the phosphorylation reaction was conducted in accordance with a partially revised protocol attached to the kit, and then the phosphorylation of the substrate was detected using the IMAP technology.
For the phosphorylation reaction, 384 well plate was used, and the reaction volume was 10 μl/well. The composition of the reaction buffer (assay buffer) is comprised of 20 mM of HEPES buffer (pH 7.4), 0.01% Tween-20, and 2 mM of dithiothreitol (DTT). Thereto, AurB/INCENP complex protein, 100 nM of the substrate, and 40 μM of ATP, and 1 mM of magnesium salt were added, and then the reaction was conducted at 25° C. for 45 minutes. Thereafter, in order to terminate and detect the reaction, 30 μl of the IMAP (registered trademark) binding reagent (IMAP Progressive Binding Reagent, R7284) that had been diluted (1:400) in the 1×IMAP binding buffer A (IMAP Progressive Binding Buffer A, 5× stock, R7282) was added to each well. The solution stood still for 60 minutes in the dark, and then fluorescence polarization was measured using a high-end microplate reader (excitation wavelength: 485 nm; emission wavelength: 520 nm).
The compound to be tested was added to the reaction system such that a dilution series of the compound in DMSO was prepared, and then 0.5 μL of this solution was added for the testing to each well. Each control well was provided by adding 0.5 μL of DMSO to the well in place of the DMSO solution containing the compound to be tested.

T1 sequence (Q96GD4 whole entry): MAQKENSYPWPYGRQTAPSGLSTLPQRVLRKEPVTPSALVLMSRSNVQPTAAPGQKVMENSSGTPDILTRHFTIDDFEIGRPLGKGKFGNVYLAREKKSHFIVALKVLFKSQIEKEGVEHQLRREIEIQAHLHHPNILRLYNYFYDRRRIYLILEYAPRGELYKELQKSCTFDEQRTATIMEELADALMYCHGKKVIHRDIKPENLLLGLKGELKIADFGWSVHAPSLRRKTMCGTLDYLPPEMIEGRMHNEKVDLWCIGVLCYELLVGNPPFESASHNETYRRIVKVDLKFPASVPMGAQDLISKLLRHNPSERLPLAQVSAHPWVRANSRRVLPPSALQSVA
T1 sequence (Q9NQS7 803-916 partner limits assumed): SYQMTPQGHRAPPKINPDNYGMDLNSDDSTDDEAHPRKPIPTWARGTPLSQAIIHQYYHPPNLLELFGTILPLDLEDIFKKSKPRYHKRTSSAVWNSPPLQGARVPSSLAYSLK

Row | SMILES | IC50
1 | Cl.O=C(c1cccc(Cl)c1F)N1CCC(O)(Cc2cccc(Nc3cc[nH]n3)n2)CC1 [Example 2, 1-(3-chloro-2-fluorobenzoyl)-4-((6-(1H-pyrazol-3-ylamino)pyridin-2-yl)methyl)piperidin-4-ol hydrochloride] | 369 nM
2 | O=c1[nH]nc(C2(Cc3cccc(Nc4cc[nH]n4)n3)CCN(S(=O)(=O)c3ccccc3C(F)(F)F)CC2)o1 [Example 14, 5-(4-((6-(1H-pyrazol-3-ylamino)pyridin-2-yl)methyl)-1-((2-(trifluoromethyl)phenyl)sulfonyl)piperidin-4-yl)-1,3,4-oxadiazol-2(3H)-one trifluoroacetate] | > 1000 nM
3 | O=c1[nH]nc(C2(Cc3cccc(Nc4cc[nH]n4)n3)CCN(C(c3cccc(C(F)(F)F)c3)C(F)(F)F)CC2)o1 (stereo not drawn) [Example 19, 5-(4-((6-(1H-pyrazol-3-ylamino)pyridin-2-yl)methyl)-1-(2,2,2-trifluoro-1-(3-(trifluoromethyl)phenyl)ethyl)piperidin-4-yl)-1,3,4-oxadiazol-2(3H)-one trifluoroacetate] | > 1000 nM
